Results as given in patent US20240270724A1, “GALECTIN-3 INHIBITING C-GLYCOSIDES” (GLYCOMIMETICS, INC., priority 2021, published 2024).

Columns and labels:
[1] = target: T1, carbohydrate recognition domain of human galectin-3 (Galectin-3-CRD) (Homo sapiens, UniProt P17931); experiment: Galectin-3 activity microscale thermophoresis assay; assay type: binding; details: label-free MST, 20 nM galectin-3-CRD; average of all assays (± standard deviation), each assay in triplicate
T1 construct: The carbohydrate recognition domain of human galectin-3 (Servesto Galectin-3-CRD) was diluted; purchased Servesto
Procedure: The carbohydrate recognition domain of human galectin-3 (Servesto Galectin-3-CRD) was diluted with PBS+0.1% F127 to 40 nM. Separately, a 40 uM stock of Compound 45 in DMSO was diluted down to 4 uM in PBS+0.1% F127 and serially diluted in sixteen steps using a dilution factor of 1 to 2 in 10% DMSO+PBS+0.1% F127. To each sample in the serial dilution of Compound 45, 10 ul of 40 nM Galectin-3-CRD was added, yielding final concentrations of 20 nM galectin-3-CRD and 5% DMSO+PBS+0.1% F127. NT.LabelFree Zero background Standard Treated Capillaries were filled with the prepared solutions then loaded into the Monolith NT Label-Free MST instrument. The reaction was measured with 100% excitation power of LED and medium (40%) MST power. Binding curves and Kd values were generated using MO affinity analysis. Each assay was run in triplicate. Some compounds were subjected to more than one assay run in triplicate.

[2] = target: T2, galectin-3 (Homo sapiens, UniProt P17931); experiment: Galectin-3 activity ELISA assay: inhibition of galectin-3 binding to immobilized Galβ1-3GlcNAc polymer; details: inhibition of galectin-3 binding to Galβ1-3GlcNAc polymer, average (± standard deviation) where assayed more than once
T2 construct: purchased IBL IBATGP0414
From the text: An inhibition assay may be used to screen for antagonists of galectin-3. For example, an assay may be performed to characterize the capability of a compound described herein to inhibit interaction of galectin-3 with a Galβ1-3GlcNAc carbohydrate structure. The inhibition assay may be a competitive binding assay, which allows the determination of IC50 values. By way of example, a Galβ1-3GlcNAc polymer may be immobilized onto a matrix; a composition may be added to reduce nonspecific binding; the immobilized Galβ1-3GlcNAc polymer may be contacted with the candidate compound in the presence of galectin-3 group under conditions and for a time sufficient to permit galectin-3 to bind to the immobilized Galβ1-3GlcNAc polymer; the immobilized Galβ1-3GlcNAc polymer may be washed; and the amount of galectin-3 bound to the immobilized Galβ1-3GlcNAc polymer may be detected. Variations of such steps can be readily and routinely accomplished by a person of ordinary skill in the art.
Galectin-3 antagonists were evaluated for their ability to inhibit binding of galectin-3 to a Galβ1-3GlcNAc carbohydrate structure. The detailed protocol was as follows. A 1 μg/mL suspension of a Galβ1-3GlcNAcβ1-3Galβ1-4GlcNAcβ-PAA-biotin polymer (Glycotech, catalog number 01-096) was prepared. A 100 μL aliquot of the polymer was added to the wells of a 96-well streptavidin-coated plate (R&D Systems, catalog number CP004). A 100 μL aliquot of 1× Tris Buffered Saline (TBS, Sigma, catalog number T5912-10X) was added to control wells. The polymer was allowed to bind to the streptavidin-coated wells for 1.5 hours at room temperature. The contents of the wells were discarded, and 200 μL of 1×TBS containing 1% bovine serum albumin (BSA) was added to each well as a blocking reagent and the plate was kept at room temperature for 30 minutes. The wells were washed three times with 1×TBS containing 0.1% BSA. A serial dilution of test compounds was prepared in a separate V-bottom plate (Corning, catalog number 3897). A 75 μL aliquot of the highest concentration of the compound to be tested was added to the first well in a column of the V-bottom plate, then 15 μL were serially transferred into 60 μL 1×TBS through the remaining wells in the column to generate a 1 to 5 serial dilution. A 60 μL aliquot of 2 μg/mL galectin-3 (IBL, catalog number IBATGP0414) was added to each well in the V-bottom plate. A 100 μL aliquot of the galectin-3 test compound mixture was transferred from the V-bottom plate into the assay plate containing the Galβ1-3GlcNAc polymer. Four sets of control wells in the assay plate were prepared in duplicate containing 1) both Galβ1-3GlcNAc polymer and galectin-3, 2) neither the polymer nor galectin-3, 3) galectin-3 only, no polymer, or 4) polymer only, no galectin-3. The plate was gently rocked for 1.5 hours at room temperature. The wells were washed four times with TBS/0.1% BSA. A 100 μL aliquot of anti-galectin-3 antibody conjugated to horse radish peroxidase (R&D Systems, from DGAL30 kit) was added to each well, and the plate was kept at room temperature for 1 hour. The wells were washed four times with TBS/0.1% BSA. A 100 μL aliquot of TMB substrate solution was added to each well. The TMB substrate solution was prepared by making a 1:1 mixture of TMB Peroxidase Substrate (KPL, catalog number 5120-0048) and Peroxidase Substrate Solution B (KPL, catalog number 5120-0037). The plate was kept at room temperature for 10 to 20 minutes. The color development was stopped by adding 100 uL 10% phosphoric acid (RICCA Chemical Co., catalog number 5850-16). The absorbance at 450 nm (A450) was measured using a FlexStation 3 plate reader (Molecular Devices). Plots of A450 versus test compound concentration and IC50 determinations were made using GraphPad Prism 6. The number of assays run (n) for each compound is recorded in the following table.

T2 sequence (P17931 whole entry): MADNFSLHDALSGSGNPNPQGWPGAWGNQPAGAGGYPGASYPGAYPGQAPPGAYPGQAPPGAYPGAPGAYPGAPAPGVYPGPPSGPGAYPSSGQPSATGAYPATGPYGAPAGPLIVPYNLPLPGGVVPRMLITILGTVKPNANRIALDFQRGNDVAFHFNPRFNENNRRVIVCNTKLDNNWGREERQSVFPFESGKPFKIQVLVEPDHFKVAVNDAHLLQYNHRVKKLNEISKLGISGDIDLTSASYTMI
T1 sequence (P17931 118-248 limits assumed): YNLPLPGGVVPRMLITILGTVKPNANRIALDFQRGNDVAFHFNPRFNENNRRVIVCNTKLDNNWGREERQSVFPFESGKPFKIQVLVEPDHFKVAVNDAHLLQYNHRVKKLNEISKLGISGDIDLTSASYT

Kd [1] [nM]	IC50 [2] [nM]	SMILES
20	216	[2H]C([2H])([2H])OC1C(n2cc(-c3cc(F)c(F)c(F)c3)nn2)[C@@H](O)C(CO)O[C@H]1[C@H](OCc1ccc(Br)cc1)C(=O)NC(C)(C)CO (stereo partly shown) [Compound 74]
21	938	[2H]C([2H])([2H])OC1C(n2cc(-c3cc(F)c(F)c(F)c3)nn2)[C@@H](O)C(CO)O[C@H]1[C@H](OCc1ccc(Br)cc1)C(=O)NC1(CO)CC1 (stereo partly shown) [Compound 75]
31	470	COC1C(n2cc(-c3cc(F)c(F)c(F)c3)nn2)[C@@H](O)C(CO)O[C@H]1[C@H](OCc1ccc(Br)cc1)C(=O)O (stereo partly shown) [Compound 76]
570	2910	COC1C(n2cc(-c3cc(F)c(F)c(F)c3)nn2)[C@@H](O)C(CO)O[C@H]1[C@H](OCc1ccc(Cl)cc1)C(=O)N(C)C (stereo partly shown) [Compound 83, reference compound]
18	386	CNC(=O)[C@@H](OCc1ccc(Cl)cc1)[C@@H]1OC(CO)[C@H](O)C(n2cc(-c3cc(F)c(F)c(F)c3)nn2)C1OC (stereo partly shown) [Compound 84, reference compound]
12	397	COCCCNC(=O)[C@@H](OCc1ccc(Cl)cc1)[C@@H]1OC(CO)[C@H](O)C(n2cc(-c3cc(F)c(F)c(F)c3)nn2)C1OC (stereo partly shown) [Compound 85, reference compound]
0.4	184	CC(C)OC(=O)[C@@H](OCc1ccc(Cl)cc1)[C@@H]1OC(CO)[C@H](O)C(n2cc(-c3cc(F)c(F)c(F)c3)nn2)C1O (stereo partly shown) [Compound 86, reference compound]
20	724	COC1C(n2cc(-c3cc(F)c(F)c(F)c3)nn2)[C@@H](O)C(CO)O[C@H]1[C@H](OCc1ccc(Cl)cc1)C(=O)OC(C)C (stereo partly shown) [Compound 87, reference compound]
67	416	[2H]C([2H])([2H])OC1C(n2cc(-c3cc(F)c(F)c(F)c3)nn2)[C@@H](O)C(CO)O[C@H]1[C@H](OCc1ccc(Cl)cc1)C(=O)NC(C)C (stereo partly shown) [Compound 88, reference compound]
70	427	COC1C(n2cc(-c3cc(F)c(F)c(F)c3)nn2)[C@@H](O)C(CO)O[C@H]1[C@H](OCc1ccc(Cl)cc1)C(=O)NC(C)C (stereo partly shown) [Compound 89, reference compound]
25	1190	[2H]C([2H])([2H])OC1C(n2cc(-c3cc(F)c(F)c(F)c3)nn2)[C@@H](O)C(CO)O[C@H]1[C@H](OCc1ccc(Cl)c(F)c1)C(=O)NC(C)C (stereo partly shown) [Compound 90, reference compound]
